Data as given in ChEMBL document CHEMBL1201862, “PubChem BioAssay data set” (2004).
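These data come from cells grown in 96-well plates and exposed to compound for 48 hours at five concentrations. GI50 marks 50% less growth.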 Active and inactive are the calls of the source. Cut-off read from the data, not from the text of the source: active = GI50 up to about 1.1 µM and inactive = higher.

Tests used:
Assay in all cases: growth of human tumour cells (NCI), 48 h
A498 = system: A498
HOP-18 = system: HOP-18
CCRF-CEM = system: CCRF-CEM
HT-29 = system: HT-29
HCT-15 = system: HCT-15
Hs-578T = system: Hs-578T
M19-MEL = system: M19-MEL
SNB-75 = system: SNB-75
SK-MEL-5 = system: SK-MEL-5
NCI-H460 = system: NCI-H460
DU-145 = system: DU-145
HL-60 = system: HL-60
SF-539 = system: SF-539
BT-549 = system: BT-549
SF-295 = system: SF-295
SR = system: SR
SF-268 = system: SF-268
MDA-MB-231 = system: MDA-MB-231
IGROV-1 = system: IGROV-1
M14 = system: M14
SNB-78 = system: SNB-78
SW-620 = system: SW-620
XF498 = system: XF498
LXFL 529 = system: LXFL 529
SNB-19 = system: SNB-19
PC-3 = system: PC-3
K562 = system: K562
OVCAR-4 = system: OVCAR-4
HOP-92 = system: HOP-92
HCT-116 = system: HCT-116
COLO 205 = system: COLO 205
TK-10 = system: TK-10
UACC-257 = system: UACC-257
DLD-1 = system: DLD-1
Malme-3M = system: Malme-3M
OVCAR-8 = system: OVCAR-8
CAKI-1 = system: CAKI-1
NCI-H23 = system: NCI-H23
NCI/ADR-RES = system: NCI/ADR-RES
SK-MEL-28 = system: SK-MEL-28
DMS-273 = system: DMS-273
SK-OV-3 = system: SK-OV-3
NCI-H522 = system: NCI-H522
EKVX = system: EKVX
786-0 = system: 786-0
MOLT-4 = system: MOLT-4
KM12 = system: KM12
OVCAR-3 = system: OVCAR-3
HCC 2998 = system: HCC 2998
MDA-N = system: MDA-N
U-251 = system: U-251
T47D = system: T47D
RXF 393 = system: RXF 393
HOP-62 = system: HOP-62
OVCAR-5 = system: OVCAR-5
UO-31 = system: UO-31
MCF7 = system: MCF7
UACC-62 = system: UACC-62
KM-20L2 = system: KM-20L2
SN12C = system: SN12C
A549 = system: A549
ACHN = system: ACHN
RPMI-8226 = system: RPMI-8226
MDA-MB-435 = system: MDA-MB-435
SK-MEL-2 = system: SK-MEL-2
NCI-H226 = system: NCI-H226
LOX IMVI = system: LOX IMVI
DMS-114 = system: DMS-114

CCN(CC)CC(O)CNc1ccc(NCC(O)CCl)c2c1C(=O)c1ccccc1C2=O (stereo not given)
GI50 (A498): 13.5 µM (inactive) | GI50 (HOP-18): > 10 µM (inactive) | GI50 (CCRF-CEM): 1.06 µM (active) | GI50 (HT-29): 3.31 µM (inactive) | GI50 (HCT-15): 6.1 µM | GI50 (Hs-578T): 11.6 µM (inactive) | GI50 (M19-MEL): 6.82 µM (inactive) | GI50 (SNB-75): 11 µM (inactive) | GI50 (SK-MEL-5): 7.48 µM (inactive) | GI50 (NCI-H460): 2.78 µM (inactive) | GI50 (DU-145): 13.4 µM (inactive) | GI50 (HL-60): 3.54 µM (inactive) | GI50 (SF-539): 6.27 µM (inactive) | GI50 (BT-549): 2.22 µM (inactive) | GI50 (SF-295): 9.75 µM (inactive) | GI50 (SR): 1.05 µM (active) | GI50 (SF-268): 2.65 µM (inactive) | GI50 (MDA-MB-231): 11.1 µM (inactive) | GI50 (IGROV-1): 10 µM (inactive) | GI50 (M14): 3.3 µM (inactive) | GI50 (SNB-78): 6.7 µM (inactive) | GI50 (SW-620): 1.28 µM (inactive) | GI50 (XF498): 13.4 µM (inactive) | GI50 (LXFL 529): 1.85 µM (inactive) | GI50 (SNB-19): 12.2 µM (inactive) | GI50 (PC-3): 6.47 µM (inactive) | GI50 (K562): 1.27 µM (inactive) | GI50 (OVCAR-4): 6.52 µM (inactive) | GI50 (HOP-92): 5.58 µM (inactive) | GI50 (HCT-116): 1.67 µM (inactive) | GI50 (COLO 205): 6.47 µM (inactive) | GI50 (TK-10): 12.1 µM (inactive) | GI50 (UACC-257): 6.04 µM (inactive) | GI50 (DLD-1): 8.83 µM (inactive) | GI50 (Malme-3M): 13.4 µM (inactive) | GI50 (OVCAR-8): 3.85 µM (inactive) | GI50 (CAKI-1): 8.67 µM (inactive) | GI50 (NCI-H23): 6.67 µM (inactive) | GI50 (NCI/ADR-RES): 2.45 µM (inactive) | GI50 (SK-MEL-28): 11.5 µM (inactive) | GI50 (DMS-273): 3.33 µM (inactive) | GI50 (SK-OV-3): 18.9 µM (inactive) | GI50 (NCI-H522): 4.47 µM (inactive) | GI50 (EKVX): 14.9 µM (inactive) | GI50 (786-0): 2.98 µM (inactive) | GI50 (MOLT-4): 0.484 µM (active) | GI50 (KM12): 4.15 µM (inactive) | GI50 (OVCAR-3): 6.78 µM (inactive) | GI50 (HCC 2998): 7.83 µM (inactive) | GI50 (MDA-N): 5.19 µM (inactive) | GI50 (U-251): 10.8 µM (inactive) | GI50 (T47D): 21.1 µM (inactive) | GI50 (RXF 393): 12.6 µM (inactive) | GI50 (HOP-62): 10.9 µM (inactive) | GI50 (OVCAR-5): 15.1 µM (inactive) | GI50 (UO-31): 4.59 µM (inactive) | GI50 (MCF7): 1.56 µM (inactive) | GI50 (UACC-62): 14.4 µM (inactive) | GI50 (KM-20L2): 4.68 µM (inactive) | GI50 (SN12C): 4.95 µM (inactive) | GI50 (A549): 9.27 µM (inactive) | GI50 (ACHN): 2.97 µM (inactive) | GI50 (RPMI-8226): 4.92 µM (inactive) | GI50 (MDA-MB-435): 4.45 µM (inactive) | GI50 (SK-MEL-2): 12.2 µM (inactive) | GI50 (NCI-H226): 9.95 µM (inactive) | GI50 (LOX IMVI): 0.478 µM (active)

NC(=O)N/N=C/C(=C/Nc1ccccc1)[N+](=O)[O-]
GI50 (HOP-18): > 100 µM (inactive) | GI50 (CCRF-CEM): > 100 µM (inactive) | GI50 (HT-29): > 100 µM (inactive) | GI50 (HCT-15): > 100 µM | GI50 (M19-MEL): > 100 µM (inactive) | GI50 (DMS-114): > 100 µM (inactive) | GI50 (SK-MEL-5): > 100 µM (inactive) | GI50 (NCI-H460): 89.1 µM (inactive) | GI50 (HL-60): > 100 µM (inactive) | GI50 (SF-295): > 100 µM (inactive) | GI50 (SR): > 100 µM (inactive) | GI50 (SF-268): > 100 µM (inactive) | GI50 (IGROV-1): > 100 µM (inactive) | GI50 (M14): > 100 µM (inactive) | GI50 (SW-620): > 100 µM (inactive) | GI50 (XF498): > 100 µM (inactive) | GI50 (LXFL 529): > 100 µM (inactive) | GI50 (SNB-19): > 100 µM (inactive) | GI50 (K562): > 100 µM (inactive) | GI50 (OVCAR-4): > 100 µM (inactive) | GI50 (HOP-92): 79.3 µM (inactive) | GI50 (HCT-116): > 100 µM (inactive) | GI50 (COLO 205): > 100 µM (inactive) | GI50 (TK-10): > 100 µM (inactive) | GI50 (UACC-257): > 100 µM (inactive) | GI50 (DLD-1): > 100 µM (inactive) | GI50 (OVCAR-8): > 100 µM (inactive) | GI50 (NCI-H23): > 100 µM (inactive) | GI50 (SK-MEL-28): > 100 µM (inactive) | GI50 (DMS-273): > 100 µM (inactive) | GI50 (SK-OV-3): > 100 µM (inactive) | GI50 (NCI-H522): > 100 µM (inactive) | GI50 (EKVX): > 100 µM (inactive) | GI50 (786-0): > 100 µM (inactive) | GI50 (MOLT-4): 93.8 µM (inactive) | GI50 (OVCAR-3): > 100 µM (inactive) | GI50 (HCC 2998): > 100 µM (inactive) | GI50 (U-251): > 100 µM (inactive) | GI50 (RXF 393): > 100 µM (inactive) | GI50 (HOP-62): > 100 µM (inactive) | GI50 (UO-31): > 100 µM (inactive) | GI50 (UACC-62): > 100 µM (inactive) | GI50 (KM-20L2): > 100 µM (inactive) | GI50 (SN12C): > 100 µM (inactive) | GI50 (A549): > 100 µM (inactive) | GI50 (ACHN): > 100 µM (inactive) | GI50 (RPMI-8226): > 100 µM (inactive) | GI50 (LOX IMVI): > 100 µM (inactive)
